Experimental data: EPA's ToxValDB 9.5 (doi:10.2903/j.efsa.2014.3353)

Columns and labels:
Cyprinodon variegatus = settings: acute; duration: 96 hours; mortality
Apis mellifera = settings: acute, duration: 48 hours, mortality
Daphnia magna = settings: chronic/long-term; duration: 21 days; mobility
Pimephales promelas = settings: chronic/long-term; duration: 28 days; growth
Oryctolagus sp. = settings: reproduction developmental; body weight
Tagia sp. = settings: acute; duration: 14 days; mortality
Bibionidae = settings: chronic/long-term; duration: 28 days; development
Colinus virginianus = settings: for LD50: acute, oral, mortality

`COc1cc(OC)nc(NC(=O)NS(=O)(=O)Nc2ccccc2C(=O)N(C)C)n1` [Orthosulfamuron] was tested, and the LC50 (Cyprinodon variegatus) was over 123 µg/mL, the LD50 (Apis mellifera; dermal) was over 100 µg/piece and the LC50 (Apis mellifera; oral, unspecified) was over 109 µg/piece. For the same compound, the NOEC (Daphnia magna) was 10 mg/L, the NOEC (Pimephales promelas) was 6.1 mg/L and the NOAEL (Oryctolagus sp.) was 75 mg/kg-day. The LD50 (Rattus norvegicus; acute, oral, mortality) was over 5000 mg/kg-day, the NOAEL (Rattus norvegicus; chronic, duration: 2 years, other) was 5 mg/kg-day and the NOAEL (Rattus norvegicus; reproduction developmental, mobility) was 70.8 mg/kg-day. For the same compound, the NOAEL (Rattus norvegicus; reproduction developmental, other) was 5 mg/kg-day, the LOAEL (Rattus norvegicus; subchronic, duration: 90 days, oral, immunology) was 19 mg/kg-day and the LC50 (Tagia sp.) was over 1000 mg/kg. The NOEC (Bibionidae) was 66.9 mg/L, the LD50 (Colinus virginianus; duration: 5 days, diet) was over 936 mg/kg-day and the LD50 (Colinus virginianus) was over 2000 mg/kg-day. It also gave an NOEC (Colinus virginianus; reproduction developmental, duration: 21 weeks) of 112 mg/kg-day.
